Data set [1] can be described thus: Percutaneous penetration/permeation in static Franz-type diffusion cells with split-thickness human cadaver skin. The conditions noted are these: solution b (1% in propylene glycol/oleyl alcohol 9:1); for Skin concentration: 48 hours, stratum corneum removed. The format is in vitro ADME. The method, then:
Frozen human dorsal cadaver skin (Caucasian; back skin) was obtained from the National Disease Research Interchange, Philadelphia, USA. Skin from three different donors was used;
Thawed skin samples were dermatomed to 0.7 mm with an Aesculap dermatome to obtain “split-thickness” skin.
Percutaneous penetration was studied in vitro by means of static Franz-type diffusion cells with phosphate buffered saline/fetal calf serum 2:1 as receptor fluid at 32° in triplicates for 48 hours. The compounds were applied as 1% solutions (300 μl each) in propylene glycol (solution a) or in propylene glycol/oleyl alcohol 9:1 (solution b). Samples of 100 μl were taken 5 to 7 times and replaced by fresh receptor fluid as described previously (Schmook, et al., Skin Pharmacol. 1993, 6:116-124).
Drug analysis was performed with specimens of the exposed skin (at the end of the 48 hours experiment), from which the stratum corneum had been removed by 20 strippings with an adhesive tape. The weighed skin samples were homogenized in 0.2 M ammonium phosphate buffer (pH 7.0). The homogenates were extracted with ethyl acetate and processed as described (Schmook, et al 1993).

For orientation: melting point means the temperature of the solid-liquid transition. `Nc1cc(Oc2ccc3c(C(=O)Nc4ccc(F)c(C(F)(F)F)c4)cccc3c2)ncn1` returned a melting point of 224 to 225 °C. In data set [1] (batch of skin 3), `Nc1nccc(Oc2ccc3c(C(=O)Nc4ccc(F)c(C(F)(F)F)c4)cccc3c2)n1` registered a Permeation rate of 19 ± 3 ng/mL/h and a Skin concentration of 46 ± 13 µg/g.

In data set [1] (batch of skin 1), `CCN1CCN(Cc2ccc(-c3cc4c(N[C@H](C)c5ccccc5)ncnc4[nH]3)cc2)CC1` registered a Permeation rate of 182 ± 68 ng/mL/h and a Skin concentration of 35 ± 12 µg/g. In data set [1] (batch of skin 2), the Permeation rate stood at 189 ± 43 ng/mL/h and the Skin concentration came out at 72 ± 24 µg/g. On to `Clc1ccc(Nc2nnc(Cc3ccncc3)c3ccccc23)cc1`, for which, in data set [1] (batch of skin 1), the Permeation rate stood at 286 ± 90 ng/mL/h and the Skin concentration amounted to 10.4 ± 2.0 µg/g. As to `Nc1nc(Cl)cc(Oc2ccc3c(C(=O)Nc4cccc(C(F)(F)F)c4)cccc3c2)n1` [Example 13, 6-(2-Amino-6-chloro-pyrimidin-4-yloxy)-naphthalene-1-carboxylic acid (3-trifluoromethyl-phenyl)-amide], the melting point was in the range of 234 to 236 °C. `COC(=O)Nc1nccc(Oc2ccc3c(C(=O)Nc4cccc(C(F)(F)F)c4)cccc3c2)n1` [Example 19, 6-(2-Methoxycarbonylamino-pyrimidin-4-yloxy)-naphthalene-1-carboxylic acid (3-trifluoromethyl-phenyl)-amide] came in with a melting point of 199 to 200 °C.

Compound `Nc1cc(Oc2ccc3c(C(=O)Nc4cccc(C(F)(F)F)c4)cccc3c2)ncn1` [Example 26, 6-(6-Amino-pyrimidin-4-yloxy)-naphthalene-1-carboxylic acid (3-trifluoromethyl-phenyl)-amide] came in with a melting point of 243 to 244 °C. The compound `CNc1cc(Oc2ccc3c(C(=O)Nc4ccc(N5CCOCC5)c(C(F)(F)F)c4)cccc3c2)ncn1` [Example 40, 6-(6-Methylamino-pyrimidin-4-yloxy)-naphthalene-1-carboxylic acid (4-morpholin-4-yl-3-trifluoromethyl-phenyl)-amide] registered a melting point of 156 to 157 °C. The compound `N#Cc1cc(Oc2ccc3c(C(=O)Nc4cccc(C(F)(F)F)c4)cccc3c2)ncn1` [Example 43, 6-(6-Cyano-pyrimidin-4-yloxy)-naphthalene-1-carboxylic acid (3-trifluoromethyl-phenyl)-amide] displayed a melting point of 167 °C. `CC(C)NC(=O)c1cc(Oc2ccc3c(C(=O)Nc4cccc(C(F)(F)F)c4)cccc3c2)ncn1` [Example 51, 6-[5-(3-Trifluoromethyl-phenylcarbamoyl)-naphthalen-2-yloxy]-pyrimidine-4-carboxylic acid isopropylamide]: the melting point lay in the range of 205 to 208 °C.

Turning to `O=C(Nc1cccc(C(F)(F)F)c1)c1cccc2cc(Oc3cc(CCl)ncn3)ccc12` [Example 53, 6-(6-Chloromethyl-pyrimidin-4-yloxy)-naphthalene-1-carboxylic acid (3-trifluoromethyl-phenyl)-amide], the melting point lay within 178 to 181 °C.

As for `CNCc1cc(Oc2ccc3c(C(=O)Nc4cccc(C(F)(F)F)c4)cccc3c2)ncn1` [Example 54, 6-(6-Methylaminomethyl-pyrimidin-4-yloxy)-naphthalene-1-carboxylic acid (3-trifluoromethyl-phenyl)-amide], the melting point is 141 to 143 °C. Still for that read-out and setting: in the case of `CN(C)Cc1cc(Oc2ccc3c(C(=O)Nc4cccc(C(F)(F)F)c4)cccc3c2)ncn1` [Example 55, 6-(6-Dimethylaminomethyl-pyrimidin-4-yloxy)-naphthalene-1-carboxylic acid (3-trifluoromethyl-phenyl)-amide] it was 180 to 181 °C; in that of `Nc1cc(Sc2ccc3c(C(=O)Nc4ccc(F)c(C(F)(F)F)c4)cccc3c2)ncn1` [Example 57, 6-(6-Amino-pyrimidin-4-ylsulfanyl)-naphthalene-1-carboxylic acid (4-fluoro-3-trifluoromethyl-phenyl)-amide], 221 °C. In the case of `Nc1cc(Sc2ccc3c(C(=O)Nc4cccc(C(F)(F)F)c4)cccc3c2)ncn1` [Example 58, 6-(6-Amino-pyrimidin-4-ylsulfanyl)-naphthalene-1-carboxylic acid (3-trifluoromethyl-phenyl)-amide], the melting point amounted to 205 °C. On the same count and under the same terms, in the case of `Nc1cc(Sc2ccc3c(C(=O)Nc4cccc(OC(F)(F)F)c4)cccc3c2)ncn1` [Example 61, 6-(6-Amino-pyrimidin-4-ylsulfanyl)-naphthalene-1-carboxylic acid (3-trifluoromethoxy-phenyl)-amide] it was 197 to 199 °C. The same measure, in the same setting: as for `CCCCOC(=O)c1cc(Oc2ccc3c(C(=O)Nc4cccc(C(F)(F)F)c4)cccc3c2)ccn1` [Example 64, 4-[5-(3-Trifluoromethyl-phenylcarbamoyl)-naphthalen-2-yloxy]-pyridine-2-carboxylic acid butyl ester], the figure is 128 to 130 °C; as for `CNC(=O)c1cc(Oc2ccc3c(C(=O)Nc4cccc(C(F)(F)F)c4)cccc3c2)ccn1` [Example 65, 4-[5-(3-Trifluoromethyl-phenylcarbamoyl)-naphthalen-2-yloxy]-pyridine-2-carboxylic acid methylamide], 175 to 177 °C; as for `NC(=O)c1cc(Oc2ccc3c(C(=O)Nc4cccc(C(F)(F)F)c4)cccc3c2)ccn1` [Example 66, 4-[5-(3-Trifluoromethyl-phenylcarbamoyl)-naphthalen-2-yloxy]-pyridine-2-carboxylic acid amide], 117 to 120 °C. With `CN(C)CCNC(=O)c1cc(Oc2ccc3c(C(=O)Nc4cccc(C(F)(F)F)c4)cccc3c2)ccn1` [Example 67, 4-[5-(3-Trifluoromethyl-phenylcarbamoyl)-naphthalen-2-yloxy]-pyridine-2-carboxylic acid (2-dimethylamino-ethyl)-amide], the melting point is 80 to 82 °C. `Nc1cc(Oc2ccc3c(C(=O)Nc4cccc(C(F)(F)F)c4)cccc3c2)ccn1` [Example 68, 6-(2-Amino-pyridin-4-yloxy)-naphthalene-1-carboxylic acid (3-trifluoromethyl-phenyl)-amide] gave a melting point of 222 to 224 °C. As to `COC(=O)Nc1cc(Oc2ccc3c(C(=O)Nc4cccc(C(F)(F)F)c4)cccc3c2)ccn1` [Example 69, {4-[5-(3-Trifluoromethyl-phenylcarbamoyl)-naphthalen-2-yloxy]-pyridin-2-yl}-carbamic acid methyl ester], the melting point was in the range of 230 to 232 °C.

`Nc1nccc(CCc2ccc3c(C(=O)Nc4cccc(C(F)(F)F)c4)cccc3c2)n1` [Example 70, 6-[2-(2-Amino-pyrimidin-4-yl)-ethyl]-naphthalene-1-carboxylic acid (3-trifluoromethyl-phenyl)-amide] returned a melting point of 225 to 227 °C. For the compound `Nc1cc(C#Cc2ccc3c(C(=O)Nc4cccc(C(F)(F)F)c4)cccc3c2)ncn1` [Example 71, 6-(6-Amino-pyrimidin-4-ylethynyl)-naphthalene-1-carboxylic acid (3-trifluoromethyl-phenyl)-amide], the melting point was in the range of 217 to 220 °C. The same measure, in the same setting: in the case of `CC(C)c1ccc(-n2nc(C(C)(C)C)cc2NC(=O)c2cncc3cc(Oc4cc(N)ncn4)ccc23)cc1` [Example 93, 7-(6-Amino-pyrimidin-4-yloxy)-isoquinoline-4-carboxylic acid [5-tert-butyl-2-(4-isopropyl-phenyl)-2H-pyrazol-3-yl]-amide] it was 131 to 133 °C. For `CC(C)(C)c1cc(NC(=O)c2cncc3cc(Oc4cc(N)ncn4)ccc23)n(-c2ccc(F)cc2)n1` [Example 94, 7-(6-Amino-pyrimidin-4-yloxy)-isoquinoline-4-carboxylic acid [5-tert-butyl-2-(4-fluoro-phenyl)-2H-pyrazol-3-yl]-amide], the melting point lay within 124 to 126 °C. Consider `CNc1cc(Oc2ccc3c(C(=O)Nc4ccc(F)c(C(F)(F)F)c4)cncc3c2)ncn1` [Example 95, 7-(6-Methylamino-pyrimidin-4-yloxy)-isoquinoline-4-carboxylic acid (4-fluoro-3-trifluoromethyl-phenyl)-amide], for which the melting point was in the range of 255 to 257 °C. Regarding `CNc1cc(Oc2ccc3c(C(=O)Nc4cccc(C(F)(F)F)c4)cncc3c2)ncn1` [Example 96, 7-(6-Methylamino-pyrimidin-4-yloxy)-isoquinoline-4-carboxylic acid (3-trifluoromethyl-phenyl)-amide], the melting point fell in the range of 205 to 208 °C. As for `Nc1nccc(Oc2ccc3c(C(=O)Nc4cccc(C(F)(F)F)c4)cccc3c2)n1` [drawing 76], in data set [1] (batch of skin 2), the Permeation rate came out at 13 ± 3 ng/mL/h and the Skin concentration stood at 44 ± 17 µg/g. Also, in data set [1] (batch of skin 3), the Permeation rate was found to be 8 ± 2 ng/mL/h and the Skin concentration was 24 ± 6 µg/g.

In data set [1] (batch of skin 3), `Nc1cc(Oc2ccc3c(C(=O)Nc4cccc(C(F)(F)F)c4)cccc3c2)ncn1` [drawing 77] registered a Permeation rate of 12 ± 4 ng/mL/h and a Skin concentration of 34 ± 3 µg/g. The like results for `Nc1cc(Oc2ccc3c(C(=O)Nc4ccc(F)c(C(F)(F)F)c4)cccc3c2)ncn1` [drawing 78] were, in that order, 22 ± 3 ng/mL/h and 19 ± 7 µg/g.

Values taken from patent US20120172386A1, “Combinations Comprising a VEGF Receptor Inhibitor” (NOVARTIS AG, priority 2005, published 2012).
